Our source for the IC50 and Ki values is ChEMBL document CHEMBL5325394, “What We Have Gained from Ibogaine: α3β4 Nicotinic Acetylcholine Receptor Inhibitors as Treatments for Substance Use Disorders” (J Med Chem, 2023).

Where a SMILES comes first, the peptide text is derived from it. Bridges are numbered along the chain shown (N, C = ends). Where only a bound is given, the exact number is not on record here.

Assay [1] addresses T1, Neuronal acetylcholine receptor; alpha3/beta4 (Homo sapiens, UniProt P30926+P32297). The assay is described as follows: Inhibition of alpha3beta4 nAChRs (unknown origin). It counts as protein-complex assay.
For assay [2], the target named is Mu-type opioid receptor (Bos taurus, UniProt P79350). Kind of assay: Displacement of [3H]-DAGO from calf cortex MOR receptor assessed as inhibition constant. It counts as tissue-based.
Sequence of Mu-type opioid receptor (P79350 whole entry): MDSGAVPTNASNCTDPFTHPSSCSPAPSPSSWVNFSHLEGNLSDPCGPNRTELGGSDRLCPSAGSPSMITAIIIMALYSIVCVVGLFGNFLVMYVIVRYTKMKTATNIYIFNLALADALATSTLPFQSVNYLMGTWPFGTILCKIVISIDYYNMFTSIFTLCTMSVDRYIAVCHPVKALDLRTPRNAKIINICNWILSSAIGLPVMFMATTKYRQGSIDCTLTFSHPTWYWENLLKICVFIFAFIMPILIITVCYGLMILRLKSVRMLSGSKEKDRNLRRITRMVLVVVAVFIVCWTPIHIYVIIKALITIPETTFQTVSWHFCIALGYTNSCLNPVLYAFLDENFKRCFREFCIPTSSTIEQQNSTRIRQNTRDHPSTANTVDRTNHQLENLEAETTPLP
Assay [3] is described as follows: Displacement of [3H]-BTX-B from bovine cortex sodium channel assessed as inhibition constant. It counts as tissue-based, Bos taurus. On the technique in general: Displacement assays read how much labelled ligand stays bound in the presence of the test substance.
Assay [4] concerns the target T1, Neuronal acetylcholine receptor; alpha3/beta4. Kind of assay: Displacement of [3H]Ibogaine from human alpha3beta4 nAChRs expressed in HEK293 cells assessed as inhibition constant incubated for 2 hrs by scintillation counter analysis. It counts as cell-based.
A short description of assay [5]: Displacement of [3H]-DPDPE from calf caudate nucleus DOR receptor assessed as inhibition constant. It counts as tissue-based, Bos taurus.
Assay [6] deals with T2, Neuronal acetylcholine receptor; alpha4/beta2 (Homo sapiens, UniProt P17787+P43681). The assay is described as follows: Antagonist activity at alpha4beta2 nAChR in HEK293 cells by voltage-clamp based electrophysiological method. It counts as cell-based.
T2 sequence (P17787 whole entry): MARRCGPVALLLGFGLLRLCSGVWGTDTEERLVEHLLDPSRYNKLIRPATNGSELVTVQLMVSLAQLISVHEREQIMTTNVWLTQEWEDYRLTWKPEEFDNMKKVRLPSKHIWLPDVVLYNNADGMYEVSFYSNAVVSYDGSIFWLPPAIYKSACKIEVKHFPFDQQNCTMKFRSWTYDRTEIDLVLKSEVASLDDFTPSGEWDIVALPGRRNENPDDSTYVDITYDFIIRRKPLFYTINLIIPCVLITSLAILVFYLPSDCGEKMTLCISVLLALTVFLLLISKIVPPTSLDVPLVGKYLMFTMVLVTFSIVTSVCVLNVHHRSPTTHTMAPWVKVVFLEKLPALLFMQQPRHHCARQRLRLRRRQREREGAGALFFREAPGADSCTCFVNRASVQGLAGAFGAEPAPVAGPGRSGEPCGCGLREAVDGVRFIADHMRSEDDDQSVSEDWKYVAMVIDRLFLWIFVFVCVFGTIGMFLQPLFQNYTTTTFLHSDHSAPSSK
T2 sequence (P43681 whole entry): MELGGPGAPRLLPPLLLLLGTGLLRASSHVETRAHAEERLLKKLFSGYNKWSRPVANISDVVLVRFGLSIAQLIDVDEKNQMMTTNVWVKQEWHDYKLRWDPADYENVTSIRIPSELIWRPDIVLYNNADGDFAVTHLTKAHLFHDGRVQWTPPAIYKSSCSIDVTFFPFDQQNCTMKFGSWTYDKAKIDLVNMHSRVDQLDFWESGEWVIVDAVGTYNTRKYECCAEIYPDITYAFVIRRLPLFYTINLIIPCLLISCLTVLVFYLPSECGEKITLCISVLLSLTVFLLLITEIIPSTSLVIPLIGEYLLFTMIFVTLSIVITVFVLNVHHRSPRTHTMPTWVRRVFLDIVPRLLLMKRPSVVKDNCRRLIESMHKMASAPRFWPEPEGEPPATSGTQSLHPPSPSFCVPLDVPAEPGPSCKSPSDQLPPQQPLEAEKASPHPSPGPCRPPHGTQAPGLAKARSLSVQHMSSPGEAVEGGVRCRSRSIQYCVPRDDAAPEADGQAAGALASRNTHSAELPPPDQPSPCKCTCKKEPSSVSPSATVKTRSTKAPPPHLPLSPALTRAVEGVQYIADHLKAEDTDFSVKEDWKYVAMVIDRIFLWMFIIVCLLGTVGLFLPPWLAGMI
Assay [7] addresses T3, Muscarinic acetylcholine receptor M1 (Bos taurus, UniProt Q8WMX0).
T3 sequence (Q8WMX0 whole entry): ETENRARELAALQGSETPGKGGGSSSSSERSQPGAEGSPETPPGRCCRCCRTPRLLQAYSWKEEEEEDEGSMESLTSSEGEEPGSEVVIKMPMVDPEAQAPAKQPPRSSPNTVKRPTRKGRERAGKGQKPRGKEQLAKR
The assay is described as follows: Displacement of [3H]-pirenzepine from calf cortex Muscarinic M1 receptor assessed as inhibition constant. Format: tissue-based.

Assay [8] in a line: Displacement of [3H]-paroxetine from bovine brain stem 5-HT receptor assessed as inhibition constant. It counts as tissue-based, Bos taurus, Brainstem.
The target of assay [9] is T1, Neuronal acetylcholine receptor; alpha3/beta4. Kind of assay: Antagonist activity at recombinant alpha3beta4 nAChR in HEK293 cells by voltage-clamp based electrophysiological method. It counts as cell-based.
Assay [10] can be described thus: Displacement of [3H]-MK801 from bovine cortex NMDA receptor assessed as inhibition constant. Format: tissue-based, Bos taurus.
The nature of assay [11]: Displacement of [3H]-GR-65,630 from 5-HT3 receptor in mouse NG-108 cells assessed as inhibition constant. Format: cell-based. As to conditions: ng-108 cell.
For assay [12], the target named is Sigma intracellular receptor 2 (Bos taurus, UniProt Q3MHW7). Kind of assay: Displacement of [3H]-DTG from calf hippocampus sigma 2 receptor assessed as inhibition constant. Format: tissue-based.
Sequence of Sigma intracellular receptor 2 (Q3MHW7 whole entry): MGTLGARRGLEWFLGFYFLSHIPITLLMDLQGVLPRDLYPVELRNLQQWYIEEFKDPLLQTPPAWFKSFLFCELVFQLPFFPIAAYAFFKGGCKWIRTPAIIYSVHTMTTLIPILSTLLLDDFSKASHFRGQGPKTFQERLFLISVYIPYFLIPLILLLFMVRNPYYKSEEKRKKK
The target of assay [13] is T4, Neuronal acetylcholine receptor subunit alpha-7 (Homo sapiens, UniProt P36544). The assay is described as follows: Inhibition of nAChR alpha7 receptor (unknown origin) assessed as inhibition of calcium flux.
T4 sequence (P36544 whole entry): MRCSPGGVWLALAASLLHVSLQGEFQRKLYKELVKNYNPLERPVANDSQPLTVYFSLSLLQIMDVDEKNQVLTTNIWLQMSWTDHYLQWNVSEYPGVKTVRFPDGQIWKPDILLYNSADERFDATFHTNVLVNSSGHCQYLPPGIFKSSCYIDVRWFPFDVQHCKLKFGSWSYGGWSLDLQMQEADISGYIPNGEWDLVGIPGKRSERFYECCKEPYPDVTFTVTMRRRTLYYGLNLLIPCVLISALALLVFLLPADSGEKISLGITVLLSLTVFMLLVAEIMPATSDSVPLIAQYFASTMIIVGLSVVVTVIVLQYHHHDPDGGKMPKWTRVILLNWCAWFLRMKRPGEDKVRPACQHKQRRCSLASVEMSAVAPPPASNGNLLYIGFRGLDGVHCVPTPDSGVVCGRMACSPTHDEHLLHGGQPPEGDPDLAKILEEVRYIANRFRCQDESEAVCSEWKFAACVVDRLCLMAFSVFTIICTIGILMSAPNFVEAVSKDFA
The target of assay [14] is T2, Neuronal acetylcholine receptor; alpha4/beta2. The assay is described as follows: Inhibition of nAChR alpha4beta2 receptor (unknown origin). Format: protein-complex assay.
The target in assay [15] is T1, Neuronal acetylcholine receptor; alpha3/beta4. The assay is described as follows: Antagonist activity at human alpha3beta4 nAChRs expressed in HEK293 cells assessed as inhibition of (+/-)-epibatidine-induced Ca+2 influx incubated for 5 mins by FLIPR analysis. It counts as cell-based.
Assay [16] shares this target. Kind of assay: Displacement of [3H]imipramine from human alpha3beta4 nAChRs expressed in HEK293 cells assessed as inhibition constant incubated for 2 hrs by scintillation counter analysis. It counts as cell-based.
The target is the same in assay [17]. Kind of assay: Partial agonist activity at alpha3beta4 nAChR in HEK293 cells assessed as reduction in Ca+2 influx by FLIPR assy. Format: cell-based.
Assay [18] addresses T2, Neuronal acetylcholine receptor; alpha4/beta2. Kind of assay: Partial agonist activity at alpha4beta2 nAChR in HEK293 cells assessed as reduction in Ca+2 influx by FLIPR assy. It counts as cell-based.
Assay [19] concerns the target T1, Neuronal acetylcholine receptor; alpha3/beta4. The assay is described as follows: Inhibition of alpha3beta4 (unknown origin) by electrophysiology assay. It counts as protein-complex assay.
For assay [20], the target named is T2, Neuronal acetylcholine receptor; alpha4/beta2. The assay is described as follows: Inhibition of nAChR alpha4beta2 (unknown origin) by electrophysiology assay. Format: protein-complex assay.
The target of assay [21] is T4, Neuronal acetylcholine receptor subunit alpha-7. Kind of assay: Inhibition of nAChR alpha7 (unknown origin) by electrophysiology assay.
Assay [22] concerns the target Neuronal acetylcholine receptor; alpha3/beta2 (Homo sapiens, UniProt P17787+P32297). Kind of assay: Inhibition of nAChR alpha3beta2 (unknown origin) by electrophysiology assay. Format: protein-complex assay.
For assay [23], the target named is T4, Neuronal acetylcholine receptor subunit alpha-7. Kind of assay: Antagonist activity at alpha7 nAChRs in human SH-SY5Y cells assessed as increase in intracellular calcium level by FLIPR assay. Format: cell-based. (In general: Calcium flux is commonly read through the fluorescence of an indicator in the cells.)

T1 sequence (P30926 whole entry): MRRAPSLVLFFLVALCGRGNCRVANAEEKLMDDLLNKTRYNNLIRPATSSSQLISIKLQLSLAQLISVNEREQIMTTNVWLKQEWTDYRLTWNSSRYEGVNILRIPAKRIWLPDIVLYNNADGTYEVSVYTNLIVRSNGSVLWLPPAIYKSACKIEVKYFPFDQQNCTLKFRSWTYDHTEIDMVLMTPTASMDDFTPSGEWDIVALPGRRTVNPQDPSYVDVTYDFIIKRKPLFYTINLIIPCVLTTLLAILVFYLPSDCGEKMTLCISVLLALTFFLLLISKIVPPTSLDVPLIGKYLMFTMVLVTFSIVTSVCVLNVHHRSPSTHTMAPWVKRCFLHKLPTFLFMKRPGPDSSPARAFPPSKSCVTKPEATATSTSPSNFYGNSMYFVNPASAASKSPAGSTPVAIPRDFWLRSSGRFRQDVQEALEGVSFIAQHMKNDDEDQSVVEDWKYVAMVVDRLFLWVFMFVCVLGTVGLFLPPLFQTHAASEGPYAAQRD
T1 sequence (P32297 whole entry): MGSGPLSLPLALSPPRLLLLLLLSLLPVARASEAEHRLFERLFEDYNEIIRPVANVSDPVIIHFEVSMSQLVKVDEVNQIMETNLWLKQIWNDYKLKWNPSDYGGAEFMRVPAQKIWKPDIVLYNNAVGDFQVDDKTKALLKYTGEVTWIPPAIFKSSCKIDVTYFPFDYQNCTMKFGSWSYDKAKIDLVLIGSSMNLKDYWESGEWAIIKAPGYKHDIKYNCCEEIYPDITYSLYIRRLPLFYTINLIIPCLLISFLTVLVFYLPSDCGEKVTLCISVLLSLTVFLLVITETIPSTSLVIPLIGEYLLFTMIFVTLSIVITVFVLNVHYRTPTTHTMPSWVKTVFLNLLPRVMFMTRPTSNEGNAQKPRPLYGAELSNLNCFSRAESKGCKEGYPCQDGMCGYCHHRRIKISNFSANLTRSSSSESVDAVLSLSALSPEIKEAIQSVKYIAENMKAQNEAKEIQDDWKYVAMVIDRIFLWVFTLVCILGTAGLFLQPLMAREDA
Sequence of Neuronal acetylcholine receptor; alpha3/beta2 (P17787 whole entry): as the sequence (P17787 whole entry) above
Sequence of Neuronal acetylcholine receptor; alpha3/beta2 (P32297 whole entry): as the sequence (P32297 whole entry) above

In turn, `CC(C)C[C@@H]1NC(=O)[C@H](C(C)C)NC(=O)[C@H](C)NC(=O)[C@@H]2CSSC[C@H](NC(=O)CN)C(=O)N[C@@H](CSSC[C@@H](C(=O)O)NC(=O)[C@H](Cc3ccc(O)cc3)NC1=O)C(=O)N[C@@H](CO)C(=O)N[C@@H]([C@@H](C)O)C(=O)N1CCC[C@H]1C(=O)N1CCC[C@H]1C(=O)N2` (H-GCCSTPPCAVLYC-OH; disulfide 2-8, 3-13) came in with an IC50 in assay [1] of 27.7 nM.

Turning to `CC[C@H]1C[C@@H]2C[C@H]3c4[nH]c5ccc(OC)cc5c4CC[N@@](C2)[C@@H]13`, the Ki was 2 nM in [2]; 3.6 nM in assay [3]; 1.05 nM in assay [4]; above 10 nM in [5]; 16 nM in assay [7]; 4.1 nM in [8]. The Ki was found to be 3.1 nM in assay [10], 2.6 nM in assay [11] and 0.4 nM in assay [12]. For the same compound, the IC50 in [6] came to 1000 nM; in [9] it was 220 nM.

`COCC[C@H]1C[C@H]2CN3CCc4c([nH]c5ccc(OC)cc45)[C@](C(=O)OC)(C2)[C@H]13` (racemic): the Ki came out at 1.1 nM in assay [2]; 6.4 nM in assay [3]; 3.5 nM in assay [5]; 32 nM in [7]; 400 nM in assay [16]; 3.8 nM in [11]. In assay [12], the inhibition constant Ki came out at 13 nM. In addition, the IC50 was 34.7 µM in [13]; above 20000 nM in [6]; 750 nM in [9]; 6.3 µM in [14]; 1470 nM in assay [15].

For `FC(F)(F)c1ccc2c(c1)[C@@H]1CNC[C@H]2C1`, the concentration for half-maximal inhibition (IC50) in assay [17] was determined as 260 nM; in assay [18], 110 nM.

For the compound `C[C@@H]1NC(=O)[C@H](Cc2ccccc2)NC(=O)[C@@H]2CSSC[C@H](NC(=O)CN)C(=O)N[C@@H](CSSC[C@@H](C(N)=O)NC(=O)[C@H](CC(=O)O)NC(=O)[C@@H]3CCCN3C(=O)[C@H](CC(N)=O)NC(=O)[C@H]([C@@H](C)O)NC1=O)C(=O)N[C@@H](CO)C(=O)N[C@@H](Cc1ccc(O)cc1)C(=O)N1CCC[C@H]1C(=O)N1CCC[C@H]1C(=O)N2`, the IC50 in assay [19] is 770 nM; in assay [20] it was above 100 µM; in assay [21] it was above 100 µM; in [22], above 100 µM.

As to `CC[C@H](C)[C@@H]1NC(=O)[C@H](CC(N)=O)NC(=O)[C@@H]2CCCN2C(=O)[C@H](CC(N)=O)NC(=O)[C@H](CC(N)=O)NC(=O)[C@H](C(C)C)NC(=O)[C@H](CCCNC(=N)N)NC(=O)[C@@H]2CSSC[C@H](NC(=O)CNC(=O)[C@@H](N)CO)C(=O)N[C@@H](CSSC[C@@H](C(=O)O)NC1=O)C(=O)N[C@@H](CO)C(=O)N[C@@H](CC(N)=O)C(=O)N1CCC[C@H]1C(=O)N[C@@H](C)C(=O)N2` (H-SGCCSNPACRVNNPNIC-OH; disulfide 3-9, 4-17), the IC50 in assay [23] was above 10 nM.

Broadly, the IC50 is the concentration at which inhibition is half-maximal. The Ki is a dissociation constant, usually derived from enzyme kinetics or from competition with a known ligand.
